Test results taken from patent US20120315303A1, “METHODS AND INTRAVASCULAR TREATMENT DEVICES USING PACLITAXEL FOR TREATMENT OF ATHEROSCLEROSIS” (Medtronic Vascular, Inc., priority 2011, published 2012).

Assays:
Format in all cases: cell-based
CTGF [1] = assay: Western blot of CTGF protein in drug-treated SFA derived smooth muscle cells; conditions: SFA derived smooth muscle cells stimulated with Colchicinne or Angiotensin II, FIG. 13D
Method: (§1) FIG. 13 depicts effects of paclitaxel on cellular morphology, gene and protein expression. (A and B) SFA smooth muscle cells from normal donor tissue were treated with Paclitaxel, Everolimus or Sirolimus. Gene expression levels were determined by qRT-PCR for each drug arm calibrated against unstimulated control for (A) CDKN1A and (C) CTGF. (B) SMCs were exposed to Sirolimus or Paclitaxel, fixed and stained with Actin (red) and Ki67 (green). (D) SFA derived smooth muscle cells were treated with Paclitaxel, Everolimus or Sirolimus then stimulated with Colchicinne (CTGF a) or Angiotensin II (CTGF b). Protein levels were detected by western blot using antibodies against CTGF and beta actin. One representative blot of three replicates shown.
(§2) Obtaining samples from SFA arteries allowed us to generate SFA derived-smooth muscle cells and to examine the expression of genes of interest as ide12tified in the disease atherectomy samples. In particularly we investigated the transcriptional response to anti-proliferative drugs, e.g. paclitaxel and drugs from the limus family such as sirolimus, everolimus or zotarolimus. These drugs are currently employed in combination devices indicated for the treatment of coronary and peripheral disease, including drug eluting stents and drug eluting balloons. […]

KLF4 = assay: qRT-PCR KLF4 expression in drug-treated, inflammatory cocktail stimulated SFA smooth muscle cells; conditions: quiescent SFA smooth muscle cells stimulated with FBS, TGF Beta and IL1beta, FIG. 14B
Method: (§3) FIG. 14 depicts differential effect of paclitaxel versus the Limus family of drugs on expression of cell cycle, proliferation and ECM target genes in SFA smooth muscle cells. Quiescent SFA smooth muscle cells were treated with of Paclitaxel, Zotarolimus or Sirolimus then stimulated with inflammatory cocktail consisting of FBS, TGF Beta and IL1beta. Relative gene expression levels were determined by qRT-PCR for each drug treated arm as calibrated against the unstimulated baseline control for (A) BTG2, (B) KLF4, (C) PEDF, (D) Endothelin-1, (E) Thrombospondin-1, and (F) Thrombospondin-3.
(§4) Since the limus drugs have been known to affect the signaling via their effect on cell cycle inhibitors (CDKN1A and CDKN1B), we next studied their effects on the pertinent proliferative disease targets identified in this study. Specifically, we looked at BTG2, KLF4 and PEDF (FIGS. 14A, 14B, and 14C, respectively). […] The limus drugs, sirolimus and zotarolimus induced the expression of BTG2, KLF4 cell cycle inhibitors, but not of the proliferation PEDF inhibitor, which are previously unknown actions for these drugs.

Thrombospondin-1 = assay: qRT-PCR Thrombospondin-1 expression in drug-treated, inflammatory cocktail stimulated SFA smooth muscle cells; conditions: quiescent SFA smooth muscle cells stimulated with FBS, TGF Beta and IL1beta, FIG. 14E
Method: as §3
(§5) In a similar manner, the expression of Thrombospondin-1 and Thrombospondin-3 is inhibited by paciltaxel but not by sirolimus and zotarolimus. Taken together the data with regards to the differential effects of commercially employed, anti-proliferative drugs, such as paciltaxel and drugs of the limus family, on the expression of SFA disease target genes can highlight/point to wards the most beneficial therapeutic mode of application and treatment.

Thrombospondin-3 = assay: qRT-PCR Thrombospondin-3 expression in drug-treated, inflammatory cocktail stimulated SFA smooth muscle cells; conditions: quiescent SFA smooth muscle cells stimulated with FBS, TGF Beta and IL1beta, FIG. 14F
Method: as §3, §5

CDKN1A = assay: qRT-PCR CDKN1A gene expression in drug-treated SFA smooth muscle cells; conditions: SFA smooth muscle cells from normal donor tissue; qRT-PCR calibrated against unstimulated control; FIG. 13A
Method: as §1, §2

SFA smooth muscle cells = assay: Actin and Ki67 staining of drug-exposed SMCs (cellular morphology); conditions: SMCs fixed and stained with Actin and Ki67; FIG. 13B
Method: as §1, §2

PEDF = assay: qRT-PCR PEDF expression in drug-treated, inflammatory cocktail stimulated SFA smooth muscle cells; conditions: quiescent SFA smooth muscle cells stimulated with FBS, TGF Beta and IL1beta, FIG. 14C
Method: as §3, §4

CTGF [2] = assay: qRT-PCR CTGF gene expression in drug-treated SFA smooth muscle cells; conditions: qRT-PCR calibrated against unstimulated control, FIG. 13C
Method: as §1, §2

Cathepsin S = assay: In vitro Cathepsin S expression
BTG2 = assay: qRT-PCR BTG2 expression in drug-treated, inflammatory cocktail stimulated SFA smooth muscle cells; conditions: quiescent SFA smooth muscle cells stimulated with FBS, TGF Beta and IL1beta, FIG. 14A
Method: as §3, §4

Endothelin-1 = assay: qRT-PCR Endothelin-1 expression in drug-treated, inflammatory cocktail stimulated SFA smooth muscle cells; conditions: quiescent SFA smooth muscle cells stimulated with FBS, TGF Beta and IL1beta, FIG. 14D
Method: as §3, §5

In the case of `CC(=O)O[C@H]1C(=O)[C@@]2(C)[C@H]([C@H](OC(=O)c3ccccc3)[C@]3(O)C[C@H](OC(=O)[C@H](O)[C@@H](NC(=O)c4ccccc4)c4ccccc4)C(C)=C1C3(C)C)[C@]1(OC(C)=O)CO[C@@H]1C[C@@H]2O` (relative stereo) [Paclitaxel, (1S,2S,3R,4S,7R,9S,10S,12R,15S)-4,12-Diacetoxy-15-{[(2R,3S)-3-(benzoylamino)-2-hydroxy-3-phenylpropanoyl]oxy}-1,9-dihydroxy-10,14,17,17-tetramethyl-11-oxo-6-oxatetracyclo[11.3.1.0˜3, 10˜.0˜4,7˜]heptadec-13-en-2-yl rel-benzoate], the CTGF protein levels (CTGF [1]) was “reduced”, the KLF4 gene expression (KLF4) was “up regulated” and the Thrombospondin-1 gene expression (Thrombospondin-1; listed as paciltaxel) was “inhibited”. For the same compound, the Thrombospondin-1 gene expression (Thrombospondin-1; listed as paclitexel) was “substantially down regulated”, the Thrombospondin-3 gene expression (Thrombospondin-3; listed as paciltaxel) was “inhibited” and the Thrombospondin-3 gene expression (Thrombospondin-3; listed as paclitexel) was “substantially down regulated”. The CDKN1A gene expression (CDKN1A) was “does not affect”, the “effect on cellular cytoskeleton / morphology” value (SFA smooth muscle cells) was “disrupting cellular cytoskeleton” and the PEDF gene expression (PEDF) was “up regulated”. The CTGF gene expression (CTGF [2]) was “substantial down regulation”, the CTGF gene expression (CTGF [2]; listed as paclitexel) was “substantially down regulated” and the “Cathepsin S expression” value (Cathepsin S) was “induces”. The BTG2 gene expression (BTG2) was “up regulated”, the Endothelin-1 gene expression (Endothelin-1; listed as paciltaxel) was “slightly inhibited” and the Endothelin-1 gene expression (Endothelin-1; listed as paclitexel) was “substantially down regulated”.
With `CO[C@H]1C[C@@H]2CC[C@@H](C)[C@@](O)(O2)C(=O)C(=O)N2CCCC[C@H]2C(=O)O[C@H]([C@H](C)C[C@@H]2CC[C@@H](OCCO)[C@H](OC)C2)CC(=O)[C@H](C)/C=C(\C)[C@@H](O)[C@@H](OC)C(=O)[C@H](C)C[C@H](C)/C=C/C=C/C=C/1C` [everolimus] the CDKN1A gene expression (CDKN1A) was “up regulating”.
In the case of `CO[C@H]1C[C@@H]2CC[C@@H](C)[C@@](O)(O2)C(=O)C(=O)N2CCCC[C@H]2C(=O)O[C@H]([C@H](C)C[C@@H]2CC[C@H](n3cnnn3)[C@H](OC)C2)CC(=O)[C@H](C)/C=C(\C)[C@@H](O)[C@@H](OC)C(=O)[C@H](C)C[C@H](C)/C=C/C=C/C=C/1C` [zotarolimus], the KLF4 gene expression (KLF4) was “induced”, the BTG2 gene expression (BTG2) was “induced” and the Endothelin-1 gene expression (Endothelin-1) was “substantially upregulated”.
